Assay results taken from PubChem BioAssay (NCI).
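Tested at 5 concentrations; 48 h exposure; 96-well plates; endpoints linearly interpolated, else capped at highest concentration. TGI is the concentration that stops growth completely.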

What was measured:
Assay in all cases: inhibition of tumour cell growth, NCI panel, 48 h
NCI-H522 lung = system: NCI-H522 lung
HCT-116 colon = system: HCT-116 colon
HOP-62 NSCLC = system: HOP-62 NSCLC
SK-MEL-5 melanoma = system: SK-MEL-5 melanoma
NCI-H460 lung = system: NCI-H460 lung
SF-295 CNS = system: SF-295 CNS
LOX IMVI melanoma = system: LOX IMVI melanoma
MALME-3M melanoma = system: MALME-3M melanoma
SF-268 CNS = system: SF-268 CNS
MOLT-4 leukemia = system: MOLT-4 leukemia
ACHN renal = system: ACHN renal
BT-549 breast = system: BT-549 breast
A498 renal = system: A498 renal
T-47D breast = system: T-47D breast
DU-145 prostate = system: DU-145 prostate
MDA-MB-231 breast = system: MDA-MB-231 breast
KM12 colon = system: KM12 colon
UACC-257 melanoma = system: UACC-257 melanoma
MDA-N = system: MDA-N
U251 CNS = system: U251 CNS
M14 melanoma = system: M14 melanoma
MDA-MB-435 = system: MDA-MB-435
A549 NSCLC = system: A549 NSCLC
NCI-H226 lung = system: NCI-H226 lung
PC-3 prostate = system: PC-3 prostate
OVCAR-8 ovarian = system: OVCAR-8 ovarian
RPMI-8226 leukemia = system: RPMI-8226 leukemia
SK-MEL-28 melanoma = system: SK-MEL-28 melanoma
SF-539 CNS = system: SF-539 CNS
RXF 393 renal = system: RXF 393 renal
TK-10 renal = system: TK-10 renal
HL-60(TB) leukemia = system: HL-60(TB) leukemia
CCRF-CEM leukemia = system: CCRF-CEM leukemia
HCT-15 colon = system: HCT-15 colon
OVCAR-5 ovarian = system: OVCAR-5 ovarian
NCI/ADR-RES ovarian = system: NCI/ADR-RES ovarian
MCF7 breast = system: MCF7 breast
NCI-H23 lung = system: NCI-H23 lung
HCC-2998 colon = system: HCC-2998 colon
SR leukemia = system: SR leukemia
786-0 renal = system: 786-0 renal
OVCAR-3 ovarian = system: OVCAR-3 ovarian
HS 578T breast = system: HS 578T breast
COLO 205 colon = system: COLO 205 colon
SK-OV-3 ovarian = system: SK-OV-3 ovarian
OVCAR-4 ovarian = system: OVCAR-4 ovarian
CAKI-1 renal = system: CAKI-1 renal
EKVX NSCLC = system: EKVX NSCLC
UO-31 renal = system: UO-31 renal
SN12C renal = system: SN12C renal
IGROV1 ovarian = system: IGROV1 ovarian
SNB-19 CNS = system: SNB-19 CNS
HOP-92 NSCLC = system: HOP-92 NSCLC
HT29 colon = system: HT29 colon
SK-MEL-2 melanoma = system: SK-MEL-2 melanoma
SW-620 colon = system: SW-620 colon
K-562 leukemia = system: K-562 leukemia
UACC-62 melanoma = system: UACC-62 melanoma
DLD-1 colon = system: DLD-1 colon
HOP-18 NSCLC = system: HOP-18 NSCLC
LXFL 529 NSCLC = system: LXFL 529 NSCLC

COC(=O)c1c(O)ccc2c1c1c(n2Cc2cccc(C)c2)C(=O)c2ccccc2C1=O
TGI (NCI-H522 lung): 26.8 µM | TGI (HCT-116 colon): 20.2 µM | TGI (HOP-62 NSCLC): 31.3 µM | TGI (SK-MEL-5 melanoma): 26.3 µM | TGI (NCI-H460 lung): 16.7 µM | TGI (SF-295 CNS): 30.2 µM | TGI (LOX IMVI melanoma): 26.6 µM | TGI (MALME-3M melanoma): 34.1 µM | TGI (SF-268 CNS): 25.9 µM | TGI (MOLT-4 leukemia): 17.5 µM | TGI (ACHN renal): 24.5 µM | TGI (BT-549 breast): 29 µM | TGI (A498 renal): 33.9 µM | TGI (T-47D breast): 12.4 µM | TGI (DU-145 prostate): 32.6 µM | TGI (MDA-MB-231 breast): 35.3 µM | TGI (KM12 colon): 28 µM | TGI (UACC-257 melanoma): 31.2 µM | TGI (MDA-N): 33.7 µM | TGI (U251 CNS): 24.4 µM | TGI (M14 melanoma): 32.3 µM | TGI (MDA-MB-435): 23.3 µM | TGI (A549 NSCLC): 20.3 µM | TGI (NCI-H226 lung): 38.8 µM | TGI (PC-3 prostate): 23.5 µM | TGI (OVCAR-8 ovarian): 21.9 µM | TGI (RPMI-8226 leukemia): 16.9 µM | TGI (SK-MEL-28 melanoma): 29.1 µM | TGI (SF-539 CNS): 28.2 µM | TGI (RXF 393 renal): 26.1 µM | TGI (TK-10 renal): 25.2 µM | TGI (HL-60(TB) leukemia): 45.9 µM | TGI (CCRF-CEM leukemia): 22.5 µM | TGI (HCT-15 colon): 24.2 µM | TGI (OVCAR-5 ovarian): 52.7 µM | TGI (NCI/ADR-RES ovarian): 25 µM | TGI (MCF7 breast): 20.2 µM | TGI (NCI-H23 lung): 26 µM | TGI (HCC-2998 colon): 6.36 µM | TGI (SR leukemia): 21 µM | TGI (786-0 renal): 25.8 µM | TGI (OVCAR-3 ovarian): 22.8 µM | TGI (HS 578T breast): 34.9 µM | TGI (COLO 205 colon): 3.04 µM | TGI (SK-OV-3 ovarian): 23.8 µM | TGI (OVCAR-4 ovarian): 20.1 µM | TGI (CAKI-1 renal): 25.7 µM | TGI (EKVX NSCLC): 37.9 µM | TGI (UO-31 renal): 19.8 µM | TGI (SN12C renal): 22.2 µM | TGI (IGROV1 ovarian): 24.2 µM | TGI (SNB-19 CNS): 27.9 µM | TGI (HOP-92 NSCLC): 19.8 µM | TGI (HT29 colon): 14 µM | TGI (SK-MEL-2 melanoma): 27.4 µM | TGI (SW-620 colon): 32.4 µM | TGI (K-562 leukemia): 35 µM

Cc1nc2c(sc(=S)n2-c2ccccc2)c(=O)[nH]1
TGI (NCI-H522 lung): > 100 µM | TGI (HCT-116 colon): > 100 µM | TGI (HOP-62 NSCLC): > 100 µM | TGI (SK-MEL-5 melanoma): > 100 µM | TGI (NCI-H460 lung): > 100 µM | TGI (SF-295 CNS): > 100 µM | TGI (MALME-3M melanoma): > 100 µM | TGI (SF-268 CNS): > 100 µM | TGI (MOLT-4 leukemia): > 100 µM | TGI (ACHN renal): > 100 µM | TGI (A498 renal): > 100 µM | TGI (KM12 colon): > 100 µM | TGI (UACC-257 melanoma): > 100 µM | TGI (U251 CNS): > 100 µM | TGI (A549 NSCLC): > 100 µM | TGI (NCI-H226 lung): > 100 µM | TGI (OVCAR-8 ovarian): > 100 µM | TGI (RPMI-8226 leukemia): > 100 µM | TGI (SK-MEL-28 melanoma): > 100 µM | TGI (SF-539 CNS): > 100 µM | TGI (TK-10 renal): > 100 µM | TGI (HL-60(TB) leukemia): > 100 µM | TGI (CCRF-CEM leukemia): > 100 µM | TGI (UACC-62 melanoma): > 100 µM | TGI (OVCAR-5 ovarian): > 100 µM | TGI (DLD-1 colon): > 100 µM | TGI (HOP-18 NSCLC): > 100 µM | TGI (NCI-H23 lung): > 100 µM | TGI (HCC-2998 colon): > 100 µM | TGI (SR leukemia): > 100 µM | TGI (OVCAR-3 ovarian): > 100 µM | TGI (COLO 205 colon): > 100 µM | TGI (SK-OV-3 ovarian): > 100 µM | TGI (UO-31 renal): > 100 µM | TGI (IGROV1 ovarian): > 100 µM | TGI (SNB-19 CNS): > 100 µM | TGI (HOP-92 NSCLC): > 100 µM | TGI (LXFL 529 NSCLC): > 100 µM | TGI (HT29 colon): > 100 µM | TGI (SK-MEL-2 melanoma): > 100 µM | TGI (SW-620 colon): > 100 µM | TGI (K-562 leukemia): > 100 µM
